Test results as given in patent EP2951180B1, “2,6,7,8 SUBSTITUTED PURINES AS HDM2 INHIBITORS” (Merck Sharp & Dohme Corp., priority 2013, dated 2014).

Molecular target: T1, HDM2 (Homo sapiens, UniProt Q00987)
T1 construct: Thioredoxin (N); made in house; host or cells: E. coli strain BL21(DE3)Rosetta
Experiment: FRET assay (HDM2 inhibition; method not described in this part)
Assay type: binding

T1 sequence (Q00987 17-125): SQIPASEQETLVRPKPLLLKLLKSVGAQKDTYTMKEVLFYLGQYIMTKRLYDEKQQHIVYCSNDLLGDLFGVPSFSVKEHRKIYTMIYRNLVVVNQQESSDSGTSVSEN

| SMILES | IC50 (Table 2) [nM] | further results |
| --- | --- | --- |
| C[C@@H](Nc1nc(C(=O)O)nc2nc(-c3cc(C(F)(F)F)ccn3)n(Cc3ccc(C(F)(F)F)cc3)c12)C1CCC1 [Example 1.60, 6-{[(1R)-1-cyclobutylethyl]amino}-7-[4-(trifluoromethyl)benzyl] - 8-[4-(trifluoromethyl)pyridin-2-yl]-7H-purine-2-carboxylic acid] |  | IC50 (Table 1): 15.2 nM |
| Cc1ccc(OCCCN2CCN(C)CC2)c(-c2nc3nc(C(=O)O)nc(N[C@H](C)C4CC4)c3n2Cc2ccc(Cl)cc2)c1 [Example 4.17, (R)-7-(4-chlorobenzyl)-6-(1-cyclopropylethylamino)-8-(5-methyl-2-(3-(4-methylpiperazin-1-yl)propoxy)phenyl)-7H-purine-2-carboxylic acid] |  | IC50 (Table 4): 507 nM |
| COc1ccc(-c2nc3nc(C(=O)O)nc(N[C@H](C)C4CC4)c3n2Cc2ccc(C(F)(F)F)cc2)cc1Cl [Example 2.66, 8-(3-chloro-4-methoxyphenyl)-6-{[(1R)-1-cyclopropylethyl]amino}-7-[4-(trifluoromethyl)benzyl]-7H-purine-2-carboxylic acid] | 112 |  |
| COCCN(CCCOc1ccc(C)cc1-c1nc2nc(C(=O)O)nc(N[C@H](C)C3CC3)c2n1Cc1ccc(Cl)cc1)CCOC [Example 4.15, (R)-8-(2-(3-(bis(2-methoxyethyl)amino)propoxy)-5-methylphenyl)-7-(4-chlorobenzyl)-6-((1-cyclopropylethyl)amino)-7H-purine-2-carboxylic acid] |  | IC50 (Table 4): 667 nM |
| C[C@@H](Nc1nc(C(=O)O)nc2nc(-c3ccccc3F)n(Cc3ccc(C(F)(F)F)cc3)c12)C1CCC1 [Example 2.47, 6-{[(1R)-1-cyclobutylethyl]amino}-8-(2-fluorophenyl)-7-[4-(trifluoromethyl)benzyl]-7H-purine-2-carboxylic acid] | 26 |  |
| C[C@@H](Nc1nc(C(=O)O)nc2nc(C3CCCCC3)n(Cc3ccc(C(F)(F)F)cc3)c12)C1CCC1 [Example 2.4, (R)-6-((1-cyclobutylethyl)amino)-8-cyclohexyl-7-(4-(trifluoromethyl)benzyl)-7H-purine-2-carboxylic acid] | 11.5 |  |
| Cc1cc(C2CC2)ccc1-c1nc2nc(C(=O)O)nc(N[C@H](C)C3CCC3)c2n1Cc1ccc(C(F)(F)F)cc1 [Example 2.2, (R)-6-((1-cyclobutylethyl)amino)-8-(4-cyclopropyl-2-methylphenyl)-7-(4-(trifluoromethyl)benzyl)-7H-purine-2-carboxylic acid] | 151 |  |
